{
  "source": "patent EP0003461A1",
  "about": "“Aminoalcohol derivatives of ortho-hydroxy-methyl cinnamate, process for their preparation and medicines containing them” (LIPHA, LYONNAISE INDUSTRIELLE PHARMACEUTIQUE, priority 1978, dated 1979)",
  "key": {"[1]": {"test": "Clinical trial observations in patients given 200 mg tablets", "format": "in vivo", "protocol": "Parmi les observations recueillies en essai clinique, avec administration de comprimés titrés à 200 mg de principe actif, le chlorhydrate de l'ortho [(diméthoxy-3,4 phénéthylamino) -3 hydroxy-2 propoxy] trans cinnamate de méthyle, on peut rapporter les trois suivantes : • Observation N°1: • Monsieur NOV...., 64 ans présente un état de mal angineux chroniaue avec huit crises par 24 heures. Le traitement consiste en un repos et la prise d'un comprimé à 200 mg du composé exemple 1 24 heures pendant 10 jours. Le résultat est un effet bradycardisant net; le pouls passe de 95 à 60 et une très nette diminution des crises dès le deuxième jour (2 à 3 par 24 heures) est notée. La tolérance est très bonne. • Obseryation N°2: • Monsieur CLI...., 75 ans présente un bloc auriculo- ventriculaire complet appareillé par pace-maker cardis à un rythme fixe (68/mn) avec parpsystolie. A l'suscultation on note un souffle systolique en écharpe. L'électrocardiogramme montre une paracystolie avec complexes spontanés à F.R. long et aspect de bloc gauche et co-plexe électro- entrainés. La radiographie montre une hypertrophie ventriculaire gauche modérée. Le traitement consiste en la prise journalière pendant 10 jours du composé exemple 1 à 200 mg.\nMonsieur HEL ...., 44 ans a une hypertension artérielle depuis 3 ans; les chiffres habituels récents sont 180/110 mn Mg. L'étiologie est inconnue et il n'y a pas de complications. On associe au traitement consistant en la prise le matin d' 1 comprimé à 200 mg, pendant 15 jours, un régime hyposodé."}, "récepteurs bêta-1": {"test_system": "récepteurs bêta-1", "test": "Inhibition of isoprenaline-induced tachycardia in the anaesthetised, bivagotomised dog", "format": "in vivo, chien", "settings": "dog anaesthetised with pentobarbital, isoprénaline 0,4 µg/kg/I.V., beta-1 blockade", "protocol": "[…]'action sur […] tension artérielle et du rythme cardiaque du […]é au pentobarbital et bivagotomisé recevant des injections […] (0,4 μg/kg/I.V.). L'hypotension provoquée par l'isoprénaline est due à une stimulation des récepteurs bêta-2 qui […] une vasodilatation. La […] produite par l'isopré- naline est due à une stimulation des récepteursbêta-1 cardiaques oui […] une accélération de son rythme de contraction. Dans l'inhibition […] visualisant un effet de blocage des récepteurs bêta-1, on a déterminé la dose efficace 50 en mg/kg/I.V."}, "récepteurs bêta-2": {"test_system": "récepteurs bêta-2", "test": "Inhibition of isoprenaline-induced hypotension in the anaesthetised, bivagotomised dog", "format": "in vivo, chien", "settings": "dog anaesthetised with pentobarbital, isoprénaline 0,4 µg/kg/I.V., beta-2 blockade", "excerpt": "L'hypotension provoquée par l'isoprénaline est due à une stimulation des récepteurs bêta-2 qui entraîne une vasodilatation. La tachycardie produite par l'isopré- naline est due à une stimulation des récepteursbêta-1 cardiaques oui entraîne une accélération de son rythme de contraction."}},
  "data": [
    {"smiles": "COC(=O)/C=C/c1ccccc1OCC(O)CNCCc1ccc(OC)c(OC)c1", "note": "(racemic) [Composé exemple 1, trans ortho [(3-4 diméthoxyphénéthyl)amino-3 hydroxy-2 propoxy] cinnamatede méthyle]", "values": [
      {"measurement": "tolérance", "setting": "[1]; Observation N°1: 200 mg per 24 h for 10 days", "value": "très bonne"},
      {"measurement": "crises par 24 heures", "setting": "[1]; Observation N°1: angina attacks from the second day, one 200 mg tablet per 24 h, before treatment eight per 24 h", "value": "2 à 3 par 24 heures"},
      {"measurement": "pouls", "setting": "[1]; Observation N°1: patient, chronic angina, one 200 mg tablet per 24 h for 10 days, before treatment 95", "value": 60},
      {"measurement": "tolérance", "setting": "[1]; Observation N°2: 200 mg daily for 10 days", "value": "très bonne"},
      {"measurement": "résultat", "setting": "[1]; Observation N°2: patient, complete AV block with pacemaker and parasystole, 200 mg daily for 10 days", "value": "disparition de la para- systolie"},
      {"measurement": "Pouls, Après", "setting": "[1]; Observation N°3: after treatment, 200 mg per day for 15 days, before 70", "value": 60},
      {"measurement": "Tension artérielle debout, Après", "setting": "[1]; Observation N°3: after treatment, 200 mg per day for 15 days, before 160/100", "value": "140/88"},
      {"measurement": "Tension artérielle couché, Après", "setting": "[1]; Observation N°3: after treatment, 200 mg per day for 15 days, before 165/102", "value": "140/90"},
      {"measurement": "tolérance", "setting": "[1]; Observation N°3: general and local tolerance, 200 mg per day for 15 days", "value": "bonne"},
      {"measurement": "résultat", "setting": "[1]; Observation N°3: patient, arterial hypertension, one 200 mg tablet in the morning for 15 days, with low-sodium diet", "value": "très bon"}
    ]},
    {"smiles": "CC(=O)Nc1ccc(OCC(O)CNC(C)C)cc1", "note": "(stereo not drawn) [Fractolol, 4' - [2-hydroxy-3 - (iso-propylamino)propoxy] acétanilide]", "values": [
      {"measurement": "dose efficace 50 (DE 50), inhibition de la tachycardie à l'isoprénaline", "setting": "récepteurs bêta-1", "value": "0,61 mg/kg/I.V."}
    ]},
    {"smiles": "COC(=O)/C=C/c1ccccc1OCC(O)CNC(C)C", "note": "(stereo not drawn) [LM 748, chlorhydrate de l'ortho (isopropylamino 3 - hydroxy-2 propoxy) trans cinnamate de méthyle]", "values": [
      {"measurement": "dose efficace 50 (DE 50), inhibition de l'hypotension à l'isoprénaline", "setting": "récepteurs bêta-2", "value": "0,01 mg/kg/I.V."}
    ]}
  ]
}
